# Measured values: patent publication US20060069132A1, “Azolecarboxamide herbicides” (priority 2004, published 2006)
# Tests used:
# [1] = test system: rice; test: Test B flooded paddy test; format: in vivo, Oryza sativa; conditions: 1000 g ai/ha, scale 0 to 100 (0 no effect, 100 complete control)
# Outline: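 Plants grow to 1- to 4-leaf stage (2–18 cm) for postemergence spraying, or to 2-leaf stage for the paddy test. Formulated compound is applied. Greenhouse holding lasts 13–15 days. Response is scored visually relative to controls, 0 no effect to 100 complete control; a dash means no result.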
# [2] = test system: Surinam grass; test: Test B pre-/postemergence herbicide test; format: in vivo, Urochloa decumbens
# Outline: (§1)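 Pre: seeds sown, then sprayed. Post: 1–4-leaf plants (2–18 cm) sprayed at the same time. Paddy: flooded, treated at 2-leaf stage. Formulation: non-phytotoxic solvent with surfactant. Greenhouse 13–15 days; visual 0–100 score relative to controls.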
# [3] = test system: windgrass; test: Test C postemergence herbicide test; format: in vivo, Apera spica-venti
# Method: (§2) At the same time, plants selected from these crop and weed species and also winter barley (Hordeum vulgare L.), blackgrass (Alopecurus myosuroides Huds.), canarygrass (Phalaris minor Retz.), chickweed (Stellaria media (L.) Vill.), downy bromegrass (Bromus tectorum L.), green foxtail (Setaria viridis (L.) Beauv.), Italian ryegrass (Lolium multiflorum Lam.), wheat (Triticum aestivum L.), wild oat (Avenafatua L.) and windgrass (Apera spica-venti (L.) Beauv.) were treated with postemergence applications of some of the test chemicals formulated in the same manner. Plants ranged in height from 2 to 18 cm (1- to 4-leaf stage) for postemergence treatments. Plant species in the flooded paddy test consisted of rice (Oryza sativa), smallflower umbrella sedge (Cyperus difformis L.), ducksalad (Heteranthera limosa (Sw.) Willd.) and barnyardgrass (Echinochloa crus-galli (L.) Beauv.) grown to the 2-leaf stage for testing. Treated plants and controls were maintained in a greenhouse for 12 to 14 days, after which time all species were compared to controls and visually evaluated. Plant response ratings, summarized in Table C, are based on a scale of 0 to 100 where 0 is no effect and 100 is complete control. A dash (-) response means no test result.
# [4] = test system: ducksalad; test: Test B flooded paddy test; format: in vivo, Heteranthera limosa; conditions: 1000 g ai/ha, scale 0 to 100 (0 no effect, 100 complete control)
# Outline: (§3)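 Formulated test chemicals went onto postemergence plants measuring 2 to 18 cm, at one to four leaves. For the paddy assay, species had reached two leaves. Scoring took place 13–15 days later by eye, relative to untreated plants, using 0 for no effect up to 100 for full control.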
# [5] = test system: winter barley; test: Test C postemergence herbicide test; format: in vivo, Hordeum vulgare
# Method: as §2
# [6] = test system: large crabgrass; test: Test B pre-/postemergence herbicide test; format: in vivo, Digitaria sanguinalis
# Outline: as §1
# [7] = test system: wheat; test: Test C postemergence herbicide test; format: in vivo, Triticum aestivum
# Method: as §2
# [8] = test system: wheat; test: Test B postemergence herbicide test; format: in vivo, Triticum aestivum; parameters: key to Wheat plant response rating: 0 = no effect, 100 = complete control
# Outline: (§4)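 Treated at 2-leaf (paddy) or 1–4-leaf, 2–18 cm (postemergence); greenhouse 13–15 d; visual score vs control, 0 none to 100 complete control; dash = not tested.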
# [9] = test system: lambsquarters; test: Test B pre-/postemergence herbicide test; format: in vivo, Chenopodium album
# Outline: as §1
# [10] = test system: small flower umbrella sedge; test: Test B flooded paddy test; format: in vivo, Cyperus difformis; conditions: 1000 g ai/ha, scale 0 to 100 (0 no effect, 100 complete control)
# Outline: as §3
# [11] = test system: downy bromegrass; test: Test C postemergence herbicide test; format: in vivo, Bromus tectorum
# Method: as §2
# [12] = test system: barnyardgrass; test: Test B flooded paddy test; format: in vivo, Echinochloa crus-galli; conditions: 1000 g ai/ha, scale 0 to 100 (0 no effect, 100 complete control)
# Outline: as §3
# [13] = test system: cocklebur; test: Test B pre-/postemergence herbicide test; format: in vivo, Xanthium strumarium
# Outline: (§5)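 Plants compared with untreated controls 13–15 days post-treatment and given a visual 0–100 injury score. Applications: preemergence to seeds; postemergence at 1- to 4-leaf (2–18 cm); paddy species flooded, 2-leaf stage. Vehicle non-phytotoxic, surfactant included.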
# [14] = test system: barnyardgrass; test: Test B pre-/postemergence herbicide test; format: in vivo, Echinochloa crus-galli; conditions: for Barnyardgrass plant response rating: Postemergence, scale 0 (no effect) to 100 (complete control)
# Outline: as §5
# [15] = test system: canarygrass; test: Test C postemergence herbicide test; format: in vivo, Phalaris minor
# Method: as §2
# [16] = test system: Italian ryegrass; test: Test C postemergence herbicide test; format: in vivo, Lolium multiflorum
# Method: as §2
# [17] = test system: blackgrass; test: Test C postemergence herbicide test; format: in vivo, Alopecurus myosuroides
# Method: as §2
# [18] = test system: blackgrass; test: Test B postemergence herbicide test; format: in vivo, Alopecurus myosuroides
# Outline: as §3
# [19] = test system: pigweed; test: Test B pre-/postemergence herbicide test; format: in vivo, Amaranthus retroflexus
# Outline: as §1
# [20] = test system: wild oat; test: Test C postemergence herbicide test; format: in vivo, Avenafatua
# Method: as §2
# [21] = test system: green foxtail; test: Test C postemergence herbicide test; format: in vivo, Setaria viridis
# Method: as §2
# [22] = test system: morningglory; test: Test B pre-/postemergence herbicide test; format: in vivo, Ipomoea coccinea
# Outline: as §5
# [23] = test system: wild oat; test: Test B postemergence herbicide test; format: in vivo, Avena fatua
# Outline: as §4
# [24] = test system: corn; test: Test B pre-/postemergence herbicide test; format: in vivo, Zea mays
# Outline: as §1
# [25] = test system: giant foxtail; test: Test B pre-/postemergence herbicide test; format: in vivo, Setaria faberi
# Outline: as §1
# [26] = test system: velvetleaf; test: Test B pre-/postemergence herbicide test; format: in vivo, Abutilon theophrasti
# Outline: as §1
# [27] = 125 g ai/ha, 0 is no effect, 100 is complete control, preemergence
# [28] = Postemergence, 500 g ai/ha, scale 0 (no effect) to 100 (complete control)
# [29] = postemergence, 125 g ai/ha, scale 0 to 100
# [30] = Postemergence, 500 g ai/ha, scale 0 to 100, 0 no effect, 100 complete control
# [31] = postemergence, 62 g ai/ha, scale 0 to 100
# [32] = Postemergence, 500 g ai/ha, scale 0 to 100
# [33] = Postemergence, 250 g ai/ha, scale 0 to 100, 0 no effect, 100 complete control
compound,measurement,setting,value
C=CCN(CC=C)C(=O)c1cccc(NC(=O)c2nn(C(C)(C)C)nc2CC)c1 [Compound 415],Rice plant response rating,[1],50
same,"Plant response rating (0 to 100 scale), Surinam Grass",[2]; [27],20
same,Surinam Grass plant response rating,[2]; [28],30
same,Surinam Grass plant response rating,[2]; [29],10
same,"Plant response rating, Windgrass",[3]; [30],65
same,"Plant response rating, Windgrass",[3]; [29],50
same,"Plant response rating, Windgrass",[3]; [31],50
same,Ducksalad plant response rating,[4],80
same,"Barley, Winter plant response rating",[5]; [32],45
same,"Plant response rating, Barley, Winter","[5]; Postemergence, 125 g ai/ha, scale 0 to 100, 0 no effect, 100 complete control",35
same,"Plant response rating, Barley, Winter",[5]; [33],35
same,"Plant response rating, Barley, Winter","[5]; postemergence, 62 g ai/ha, scale 0 to 100 (0 no effect, 100 complete control)",35
same,"Plant response rating (0 to 100 scale), Crabgrass, Large",[6]; [27],70
same,"Crabgrass, Large plant response rating",[6]; [28],50
same,"Crabgrass, Large plant response rating",[6]; [29],20
same,"Plant response rating, Wheat",[7]; [30],30
same,"Plant response rating, Wheat",[7]; [29],25
same,"Plant response rating, Wheat",[7]; [31],20
same,Wheat plant response rating,"[8]; 500 g ai/ha, scale 0 to 100, 0 no effect, 100 complete control, preemergence",30
same,Wheat plant response rating,[8]; [28],30
same,Wheat plant response rating,[8]; [29],20
same,"Plant response rating (0 to 100 scale), Lambsquarters",[9]; [27],50
same,Lambsquarters plant response rating,[9]; [28],80
same,Lambsquarters plant response rating,[9]; [29],70
same,"Sedge, Umbrella plant response rating",[10],80
same,"Plant response rating, Bromegrass, Downy",[11]; [33],60
same,"Plant response rating, Bromegrass, Downy",[11]; [30],65
same,"Plant response rating, Bromegrass, Downy",[11]; [29],60
same,"Plant response rating, Bromegrass, Downy",[11]; [31],60
same,Barnyardgrass plant response rating,[12],60
same,"Plant response rating (0 to 100 scale), Cocklebur",[13]; [27],0
same,Cocklebur plant response rating,[13]; [28],50
same,Cocklebur plant response rating,[13]; [29],30
same,"Plant response rating (0 to 100 scale), Barnyardgrass",[14]; [27],10
same,Barnyardgrass plant response rating,[14]; 125 g ai/ha,20
same,Barnyardgrass plant response rating,[14]; 500 g ai/ha,20
same,"Plant response rating, Canarygrass",[15]; [33],55
same,"Plant response rating, Canarygrass",[15]; [30],65
same,"Plant response rating, Canarygrass",[15]; [29],50
same,"Plant response rating, Canarygrass",[15]; [31],45
same,"Plant response rating, Ryegrass, Italian",[16]; [30],45
same,"Plant response rating, Ryegrass, Italian",[16]; [29],40
same,"Plant response rating, Ryegrass, Italian",[16]; [31],30
same,Blackgrass plant response rating,[17]; [32],65
same,"Plant response rating, Blackgrass",[17]; [33],60
same,"Plant response rating, Blackgrass",[17]; [29],60
same,"Plant response rating, Blackgrass",[17]; [31],50
same,Blackgrass plant response rating,[18]; [28],40
same,Blackgrass plant response rating,[18]; [29],30
same,"Plant response rating (0 to 100 scale), Pigweed",[19]; [27],60
same,Pigweed plant response rating,[19]; [28],90
same,Pigweed plant response rating,[19]; [29],70
same,"Plant response rating, Oat, Wild",[20]; [30],55
same,"Plant response rating, Oat, Wild",[20]; [29],45
same,"Plant response rating, Oat, Wild",[20]; [31],40
same,"Plant response rating, Foxtail, Green",[21]; [33],50
same,"Plant response rating, Foxtail, Green",[21]; [30],60
same,"Plant response rating, Foxtail, Green",[21]; [29],50
same,"Plant response rating, Foxtail, Green",[21]; [31],45
same,"Plant response rating (0 to 100 scale), Morningglory",[22]; [27],0
same,Morningglory plant response rating,[22]; [28],40
same,Morningglory plant response rating,[22]; [29],10
same,"Oat, Wild plant response rating",[23]; [28],40
same,"Oat, Wild plant response rating",[23]; [29],30
same,"Plant response rating (0 to 100 scale), Corn",[24]; [27],0
same,Corn plant response rating,[24]; [28],20
same,Corn plant response rating,[24]; [29],20
same,"Plant response rating (0 to 100 scale), Foxtail, Giant",[25]; [27],20
same,"Foxtail, Giant plant response rating",[25]; [28],40
same,"Foxtail, Giant plant response rating",[25]; [29],20
same,"Plant response rating (0 to 100 scale), Velvetleaf",[26]; [27],20
same,Velvetleaf plant response rating,[26]; [28],50
same,Velvetleaf plant response rating,[26]; [29],30
